Several values for one entry are separate records, joined by “and”; a condition that tells them apart may be missing. Equal values may be shown once. Activity calls are given as the source filed them. The rule behind the calls is not given here.
System: rodent lifetime carcinogenesis bioassay, tumor incidence TD50
Experiment: carcinogenic potency in animals, long-term in vivo studies, CPDB compilation (AID 1745844)

In the case of `O=C(O)CCCC/C=C(\c1ccccc1)c1cccnc1`, the carcinogen call (mouse, strain Charles River CD1, females, in feed, site: any site (literature study), lesion: several types, types named in the paper, dosed 104 weeks, study length 104 weeks) is reported as “negative (inactive)”, the TD50 (mouse, strain Charles River CD1, females, in feed, site: liver, lesion: hepatocellular adenoma, dosed 104 weeks, study length 104 weeks) is reported as 4930 mg/kg/day (inactive) and the carcinogen call (mouse, strain Charles River CD1, females, in feed, site: lung, lesion: alveolar/bronchiolar adenoma, dosed 104 weeks, study length 104 weeks) is reported as “negative (inactive)”. For the same molecule, the carcinogen call (mouse, strain Charles River CD1, females, in feed, site: lung, lesion: alveolar/bronchiolar carcinoma, dosed 104 weeks, study length 104 weeks) was “negative (inactive)”, the TD50 (mouse, strain Charles River CD1, males, in feed, site: any site (literature study), lesion: several types, types named in the paper, dosed 104 weeks, study length 104 weeks) was 1090 mg/kg/day (inactive) and the TD50 (mouse, strain Charles River CD1, males, in feed, site: liver, lesion: hepatocellular adenoma, dosed 104 weeks, study length 104 weeks) was 2050 mg/kg/day (inactive). For the same molecule, the TD50 (mouse, strain Charles River CD1, males, in feed, site: liver, lesion: hepatocellular carcinoma, dosed 104 weeks, study length 104 weeks) was 10200 mg/kg/day (inactive), the TD50 (mouse, strain Charles River CD1, males, in feed, site: lung, lesion: alveolar/bronchiolar adenoma, dosed 104 weeks, study length 104 weeks) was 1220 mg/kg/day (inactive) and the carcinogen call (mouse, strain Charles River CD1, males, in feed, site: lung, lesion: alveolar/bronchiolar carcinoma, dosed 104 weeks, study length 104 weeks) was “negative (inactive)”. For the same molecule, the carcinogen call (rat, strain Charles River CD (Sprague-Dawley), females, in feed, site: liver, lesion: hepatocellular adenoma, dosed 104 weeks, study length 104 weeks) was “negative (inactive)” and the carcinogen call (rat, strain Charles River CD (Sprague-Dawley), males, in feed, site: liver, lesion: hepatocellular adenoma, dosed 104 weeks, study length 104 weeks) was “negative (inactive)”.

Work on `OO` yielded a TD50 (mouse, strain C57BL/6J, females, in drinking water, site: duodenum, lesion: adenoma, dosed 100 weeks, study length 100 weeks) of 2010 mg/kg/day, a TD50 (mouse, strain C57BL/6J, females, in drinking water, site: duodenum, lesion: carcinoma, dosed 100 weeks, study length 100 weeks) of 7540 mg/kg/day and a TD50 (mouse, strain C57BL/6J, females, in drinking water, site: duodenum, lesion: several types, types named in the paper, dosed 100 weeks, study length 100 weeks) of 7830 mg/kg/day. For the same molecule, the TD50 (mouse, strain C57BL/6J, males, in drinking water, site: duodenum, lesion: adenoma, dosed 100 weeks, study length 100 weeks) was 7350 mg/kg/day, the TD50 (mouse, strain C57BL/6J, males, in drinking water, site: duodenum, lesion: carcinoma, dosed 100 weeks, study length 100 weeks) was 15000 mg/kg/day and the TD50 (mouse, strain C57BL/6J, males, in drinking water, site: duodenum, lesion: several types, types named in the paper, dosed 100 weeks, study length 100 weeks) was 4800 mg/kg/day.

In the case of `N#CN=C(N)N`, the carcinogen call (rat, strain F344/DuCrj, females, in feed, site: any site (literature study), lesion: several types, types named in the paper, dosed 104 weeks, study length 113 weeks) is reported as “negative (inactive)”, the carcinogen call (rat, strain F344/DuCrj, females, in feed, site: liver, lesion: one or several types, types not named, dosed 104 weeks, study length 113 weeks) is reported as “negative (inactive)” and the carcinogen call (rat, strain F344/DuCrj, males, in feed, site: any site (literature study), lesion: several types, types named in the paper, dosed 104 weeks, study length 113 weeks) is reported as “negative (inactive)”. For the same molecule, the TD50 (rat, strain F344/DuCrj, males, in feed, site: liver, lesion: hepatocellular adenoma, dosed 104 weeks, study length 113 weeks) was 109000 mg/kg/day (inactive) and the TD50 (rat, strain F344/DuCrj, males, in feed, site: subcutaneous tissue, lesion: lipoma, dosed 104 weeks, study length 113 weeks) was 15600 mg/kg/day (inactive).

With `CCOc1ccc(NC(=O)CC(C)O)cc1` (stereo not drawn) the TD50 (mouse, strain B6C3F1, females, in feed, site: liver, lesion: hepatocellular adenoma, dosed 72 weeks, study length 84 weeks) was 4000 mg/kg/day, the TD50 (mouse, strain B6C3F1, females, in feed, site: lung, lesion: alveolar-cell tumor, dosed 72 weeks, study length 84 weeks) was 11300 mg/kg/day and the TD50 (mouse, strain B6C3F1, males, in feed, site: all sites, lesion: lymphoma and leukemia, combined, dosed 70 weeks, study length 84 weeks) was 2740 mg/kg/day. It also gave a TD50 (mouse, strain B6C3F1, males, in feed, site: kidney, lesion: renal-cell adenoma, dosed 70 weeks, study length 84 weeks) of 5580 mg/kg/day, a TD50 (mouse, strain B6C3F1, males, in feed, site: kidney, lesion: renal-cell carcinoma, dosed 70 weeks, study length 84 weeks) of 5530 mg/kg/day and a TD50 (mouse, strain B6C3F1, males, in feed, site: liver, lesion: hemangioma, dosed 70 weeks, study length 84 weeks) of 406000 mg/kg/day. It also gave a TD50 (mouse, strain B6C3F1, males, in feed, site: liver, lesion: hepatocellular adenoma, dosed 70 weeks, study length 84 weeks) of 17500 mg/kg/day, a TD50 (mouse, strain B6C3F1, males, in feed, site: lung, lesion: alveolar-cell tumor, dosed 70 weeks, study length 84 weeks) of 5280 mg/kg/day and a TD50 (mouse, strain B6C3F1, males, in feed, site: urinary bladder, lesion: papilloma, dosed 70 weeks, study length 84 weeks) of 46400 mg/kg/day.

Molecule `Nc1nc(/C=C/c2ccc([N+](=O)[O-])o2)no1` has a TD50 (mouse, strain Charles River CD1, females, in feed, site: forestomach, lesion: squamous-cell carcinoma, dosed 31 weeks, study length 75 weeks) of 105 mg/kg/day, a TD50 (mouse, strain Charles River CD1, females, in feed, site: forestomach, lesion: squamous-cell papilloma, dosed 31 weeks, study length 75 weeks) of 1150 mg/kg/day and a TD50 (mouse, strain Charles River CD1, females, in feed, site: lung, lesion: adenoma, dosed 31 weeks, study length 75 weeks) of 1010 mg/kg/day. The carcinogen call (mouse, strain Charles River CD1, females, in feed, site: reticuloendothelium, lesion: several types, types named in the paper, dosed 31 weeks, study length 75 weeks) was “positive”, the TD50 (mouse, strain Charles River CD1, females, in feed, site: thymus gland, lesion: lymphoma, dosed 31 weeks, study length 75 weeks) was 262 mg/kg/day and the TD50 (mouse, strain Charles River CD1, males, in feed, site: any site (literature study), lesion: several types, types named in the paper, dosed 38 weeks, study length 75 weeks) was 29.2 mg/kg/day. The TD50 (mouse, strain Charles River CD1, males, in feed, site: forestomach, lesion: squamous-cell carcinoma, dosed 38 weeks, study length 75 weeks) was 130 mg/kg/day, the TD50 (mouse, strain Charles River CD1, males, in feed, site: forestomach, lesion: squamous-cell papilloma, dosed 38 weeks, study length 75 weeks) was 514 mg/kg/day and the TD50 (mouse, strain Charles River CD1, males, in feed, site: reticuloendothelium, lesion: several types, types named in the paper, dosed 38 weeks, study length 75 weeks) was 492 mg/kg/day. For the same molecule, the TD50 (mouse, strain Charles River CD1, males, in feed, site: thymus gland, lesion: lymphoma, dosed 38 weeks, study length 75 weeks) was 121 mg/kg/day.

With `Nc1c(Cl)cc(Cl)cc1Cl` the TD50 (mouse, strain CD-1 HaM/ICR, females, in feed, site: any site (literature study), lesion: several types, types named in the paper, dosed 68 weeks, study length 77 weeks) was 914 mg/kg/day (inactive), the TD50 (mouse, strain CD-1 HaM/ICR, females, in feed, site: liver, lesion: several types, types named in the paper, dosed 68 weeks, study length 77 weeks) was 927 mg/kg/day (inactive) and the TD50 (mouse, strain CD-1 HaM/ICR, females, in feed, site: lung, lesion: several types, types named in the paper, dosed 68 weeks, study length 77 weeks) was 1370 mg/kg/day (inactive). For the same molecule, the TD50 (mouse, strain CD-1 HaM/ICR, males, in feed, site: all sites, lesion: all vascular tumors, dosed 68 weeks, study length 77 weeks) was 273 mg/kg/day and 259 mg/kg/day, the TD50 (mouse, strain CD-1 HaM/ICR, males, in feed, site: any site (literature study), lesion: several types, types named in the paper, dosed 68 weeks, study length 77 weeks) was 206 mg/kg/day and the TD50 (mouse, strain CD-1 HaM/ICR, males, in feed, site: liver, lesion: hepatoma, dosed 68 weeks, study length 77 weeks) was 560 mg/kg/day. For the same molecule, the TD50 (mouse, strain CD-1 HaM/ICR, males, in feed, site: liver, lesion: several types, types named in the paper, dosed 68 weeks, study length 77 weeks) was 452 mg/kg/day, the TD50 (mouse, strain CD-1 HaM/ICR, males, in feed, site: lung, lesion: several types, types named in the paper, dosed 68 weeks, study length 77 weeks) was 385 mg/kg/day (inactive) and the TD50 (rat, strain Charles River CD (Sprague-Dawley), males, in feed, site: any site (literature study), lesion: several types, types named in the paper, dosed 77 weeks, study length 116 weeks) was 45.9 mg/kg/day (inactive). For the same molecule, the carcinogen call (rat, strain Charles River CD (Sprague-Dawley), males, in feed, site: liver, lesion: several types, types named in the paper, dosed 77 weeks, study length 116 weeks) was “negative (inactive)”.

`C[C@]12C=CC(=O)C=C1CC[C@@H]1[C@@H]2C(=O)C[C@@]2(C)[C@H]1CC[C@]2(O)C(=O)CO` was tested, and the carcinogen call (mouse, strain Charles River CD1, females, in feed, site: liver, lesion: several types, types named in the paper, dosed 78 weeks, study length 78 weeks) was “negative (inactive)”, the carcinogen call (mouse, strain Charles River CD1, females, in feed, site: lung, lesion: alveolar/bronchiolar tumor, dosed 78 weeks, study length 78 weeks) was “negative (inactive)” and the carcinogen call (mouse, strain Charles River CD1, females, in feed, site: lung, lesion: undifferentiated carcinoma, dosed 78 weeks, study length 78 weeks) was “negative (inactive)”. For the same molecule, the carcinogen call (mouse, strain Charles River CD1, males, in feed, site: liver, lesion: several types, types named in the paper, dosed 78 weeks, study length 78 weeks) was “negative (inactive)” and the carcinogen call (mouse, strain Charles River CD1, males, in feed, site: lung, lesion: alveolar/bronchiolar tumor, dosed 78 weeks, study length 78 weeks) was “negative (inactive)”.

Work on `[N-]=[N+]=CC(=O)OC[C@H](N)C(=O)O` yielded a TD50 (rat, strain Wistar, both sexes, i.p., site: kidney, lesion: one or several types, types not named, dosed 26 weeks, study length 78 weeks) of 0.942 mg/kg/day, a TD50 (rat, strain Wistar, both sexes, i.p., site: liver, lesion: one or several types, types not named, dosed 26 weeks, study length 78 weeks) of 3.02 mg/kg/day and a TD50 (rat, strain Wistar, both sexes, i.p., site: pancreas, exocrine, lesion: carcinoma, dosed 26 weeks, study length 78 weeks) of 0.793 mg/kg/day. For the same molecule, the carcinogen call (rat, strain Wistar, males, i.p., site: pancreas, lesion: one or several types, types not named, dosed 104 weeks, study length 104 weeks) was “negative (inactive)”.

`O=NN1CC=CCC1` gave a TD50 (rat, strain Fischer 344, females, in drinking water, site: esophagus, lesion: several types, types named in the paper, dosed 25 weeks, study length 128 weeks) of 0.216 mg/kg/day, a TD50 (rat, strain Fischer 344, females, in drinking water, site: esophagus, lesion: several types, types named in the paper, dosed 70 weeks, study length 100 weeks) of 0.127 mg/kg/day and a TD50 (rat, strain Fischer 344, females, in drinking water, site: esophagus, lesion: several types, types named in the paper, dosed 100 weeks, study length 128 weeks) of 0.0669 mg/kg/day. For the same molecule, the TD50 (rat, strain Fischer 344, females, in drinking water, site: esophagus, lesion: squamous-cell carcinoma, dosed 100 weeks, study length 128 weeks) was 0.43 mg/kg/day, the TD50 (rat, strain Fischer 344, females, in drinking water, site: liver, lesion: hemangiosarcoma, dosed 25 weeks, study length 128 weeks) was 4.04 mg/kg/day and the carcinogen call (rat, strain Fischer 344, females, in drinking water, site: liver, lesion: hepatocellular carcinoma, dosed 25 weeks, study length 128 weeks) was “positive”. The TD50 (rat, strain Fischer 344, females, in drinking water, site: liver, lesion: hyperplastic nodule, dosed 70 weeks, study length 100 weeks) was 2.15 mg/kg/day, the TD50 (rat, strain Fischer 344, females, in drinking water, site: liver, lesion: hyperplastic nodule, dosed 100 weeks, study length 128 weeks) was 0.284 mg/kg/day and the carcinogen call (rat, strain Fischer 344, females, in drinking water, site: liver, lesion: several types, types named in the paper, dosed 25 weeks, study length 128 weeks) was “positive”. For the same molecule, the TD50 (rat, strain Fischer 344, females, in drinking water, site: liver, lesion: several types, types named in the paper, dosed 100 weeks, study length 128 weeks) was 0.132 mg/kg/day, the carcinogen call (rat, strain Fischer 344, females, in drinking water, site: stomach, nonglandular, lesion: basal-cell papilloma, dosed 25 weeks, study length 128 weeks) was “positive” and the TD50 (rat, strain Fischer 344, females, in drinking water, site: stomach, nonglandular, lesion: basal-cell papilloma, dosed 100 weeks, study length 128 weeks) was 0.0551 mg/kg/day. For the same molecule, the TD50 (rat, strain Fischer 344, females, in drinking water, site: upper gastrointestinal tract, lesion: carcinoma, dosed 25 weeks, study length 128 weeks) was 0.271 mg/kg/day, the TD50 (rat, strain Fischer 344, females, in drinking water, site: upper gastrointestinal tract, lesion: carcinoma, dosed 70 weeks, study length 100 weeks) was 0.0966 mg/kg/day and the TD50 (rat, strain Fischer 344, females, in drinking water, site: upper gastrointestinal tract, lesion: carcinoma, dosed 100 weeks, study length 128 weeks) was 0.0856 mg/kg/day. The TD50 (rat, strain Fischer 344, females, in drinking water, site: upper gastrointestinal tract, lesion: several types, types named in the paper, dosed 25 weeks, study length 128 weeks) was 0.142 mg/kg/day, the carcinogen call (rat, strain Fischer 344, females, in drinking water, site: upper gastrointestinal tract, lesion: several types, types named in the paper, dosed 70 weeks, study length 100 weeks) was “positive” and the TD50 (rat, strain Fischer 344, females, in drinking water, site: upper gastrointestinal tract, lesion: several types, types named in the paper, dosed 100 weeks, study length 128 weeks) was 0.0374 mg/kg/day.
